According to the supplement of paper PMC8671470:

test system: K-562; experiment: cell viability (% survival relative to DMSO control, bortezomib = 0%); higher = less cytotoxic; conditions: 100 nM; 72 h
Procedure, shortened: (§1)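 Fifteen myeloid leukaemia cell lines were exposed to compounds at 1, 10, 100, 1000 or 10000 nM in 384-well plates for 72 h at 37 °C and 5% CO2. Viability was read by CellTiter-Glo luminescence and normalised, with vehicle as 100% and a 10 µM positive control as 0%. Values are percent survival averaged over duplicates.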

| Structure (SMILES) | cell viability [%] |
| --- | --- |
| Cc1ccc(-c2cc(C(F)(F)F)nn2-c2ccc(S(N)(=O)=O)cc2)cc1 [Celecoxib] | 85.6 |
| O=c1c(-c2ccc(O)cc2)coc2cc(O[C@@H]3O[C@H](CO)[C@@H](O)[C@H](O)[C@H]3O)ccc12 [Daidzin] | 98.5 |
| CCN(CC)C(=S)SSC(=S)N(CC)CC [Disulfiram] | 89.8 |
| c1cc(-c2cnn3cc(-c4ccc(OCCN5CCCCC5)cc4)cnc23)ccn1 [Dorsomorphin] | 93.3 |
| C[C@H]1c2cccc(O)c2C(=O)C2C(=O)[C@]3(O)C(=O)C(C(N)=O)C(=O)[C@@H](N(C)C)[C@@H]3[C@@H](O)[C@@H]21 (some centres undefined) [Doxycycline] | 97.3 |

same assay, conditions: 1000 nM; 72 h

| Structure (SMILES) | cell viability [%] |
| --- | --- |
| Cc1c(Cl)cccc1S(=O)(=O)Nc1nc(CC(=O)N2CCN(C)CC2)cs1 [BVT-2733] | 104 |
| CCc1oc2ccccc2c1C(=O)c1cc(Br)c(O)c(Br)c1 [Benzbromarone] | 97.7 |
| CCOC(=O)c1sc(NC(=O)c2ccco2)c(SC#N)c1C [CBR-5884] | 88.9 |
| O=C(/C=C/c1ccc(O)c(O)c1)OCCc1ccccc1 [Caffeic acid phenethyl ester] | 95.2 |
| CCCCCOC(=O)Nc1nc(=O)n([C@@H]2O[C@H](C)[C@@H](O)[C@H]2O)cc1F [Capecitabine] | 99.9 |
| Cc1ccc(-c2cc(C(F)(F)F)nn2-c2ccc(S(N)(=O)=O)cc2)cc1 [Celecoxib] | 95.4 |
| O=c1c(-c2ccc(O)cc2)coc2cc(O[C@@H]3O[C@H](CO)[C@@H](O)[C@H](O)[C@H]3O)ccc12 [Daidzin] | 111 |
| CCN(CC)C(=S)SSC(=S)N(CC)CC [Disulfiram] | 29.7 |
| c1cc(-c2cnn3cc(-c4ccc(OCCN5CCCCC5)cc4)cnc23)ccn1 [Dorsomorphin] | 92.1 |
| C[C@H]1c2cccc(O)c2C(=O)C2C(=O)[C@]3(O)C(=O)C(C(N)=O)C(=O)[C@@H](N(C)C)[C@@H]3[C@@H](O)[C@@H]21 (some centres undefined) [Doxycycline] | 101 |

same assay, conditions: 10000 nM; 72 h

| Structure (SMILES) | cell viability [%] |
| --- | --- |
| Cc1c(Cl)cccc1S(=O)(=O)Nc1nc(CC(=O)N2CCN(C)CC2)cs1 [BVT-2733] | 102 |
| CCc1oc2ccccc2c1C(=O)c1cc(Br)c(O)c(Br)c1 [Benzbromarone] | 103 |
| CCOC(=O)c1sc(NC(=O)c2ccco2)c(SC#N)c1C [CBR-5884] | 83.7 |
| O=C(/C=C/c1ccc(O)c(O)c1)OCCc1ccccc1 [Caffeic acid phenethyl ester] | 48.5 |
| CCCCCOC(=O)Nc1nc(=O)n([C@@H]2O[C@H](C)[C@@H](O)[C@H]2O)cc1F [Capecitabine] | 93.3 |
| Cc1ccc(-c2cc(C(F)(F)F)nn2-c2ccc(S(N)(=O)=O)cc2)cc1 [Celecoxib] | 78.4 |
| O=c1c(-c2ccc(O)cc2)coc2cc(O[C@@H]3O[C@H](CO)[C@@H](O)[C@H](O)[C@H]3O)ccc12 [Daidzin] | 106 |
| CCN(CC)C(=S)SSC(=S)N(CC)CC [Disulfiram] | 70.9 |
| c1cc(-c2cnn3cc(-c4ccc(OCCN5CCCCC5)cc4)cnc23)ccn1 [Dorsomorphin] | 93.5 |
| C[C@H]1c2cccc(O)c2C(=O)C2C(=O)[C@]3(O)C(=O)C(C(N)=O)C(=O)[C@@H](N(C)C)[C@@H]3[C@@H](O)[C@@H]21 (some centres undefined) [Doxycycline] | 46.2 |

test system: BV-173; experiment: as above; conditions: 1 nM; 72 h
Procedure, shortened: as §1

| Structure (SMILES) | cell viability [%] |
| --- | --- |
| Cc1c(Cl)cccc1S(=O)(=O)Nc1nc(CC(=O)N2CCN(C)CC2)cs1 [BVT-2733] | 102 |
| CCc1oc2ccccc2c1C(=O)c1cc(Br)c(O)c(Br)c1 [Benzbromarone] | 106 |
| CCOC(=O)c1sc(NC(=O)c2ccco2)c(SC#N)c1C [CBR-5884] | 100 |
| O=C(/C=C/c1ccc(O)c(O)c1)OCCc1ccccc1 [Caffeic acid phenethyl ester] | 93.2 |
| CCCCCOC(=O)Nc1nc(=O)n([C@@H]2O[C@H](C)[C@@H](O)[C@H]2O)cc1F [Capecitabine] | 100 |
| Cc1ccc(-c2cc(C(F)(F)F)nn2-c2ccc(S(N)(=O)=O)cc2)cc1 [Celecoxib] | 104 |
| O=c1c(-c2ccc(O)cc2)coc2cc(O[C@@H]3O[C@H](CO)[C@@H](O)[C@H](O)[C@H]3O)ccc12 [Daidzin] | 94 |
| CCN(CC)C(=S)SSC(=S)N(CC)CC [Disulfiram] | 96 |
| c1cc(-c2cnn3cc(-c4ccc(OCCN5CCCCC5)cc4)cnc23)ccn1 [Dorsomorphin] | 89.8 |
| C[C@H]1c2cccc(O)c2C(=O)C2C(=O)[C@]3(O)C(=O)C(C(N)=O)C(=O)[C@@H](N(C)C)[C@@H]3[C@@H](O)[C@@H]21 (some centres undefined) [Doxycycline] | 107 |

same assay, conditions: 10 nM; 72 h

| Structure (SMILES) | cell viability [%] |
| --- | --- |
| Cc1c(Cl)cccc1S(=O)(=O)Nc1nc(CC(=O)N2CCN(C)CC2)cs1 [BVT-2733] | 103 |
| CCc1oc2ccccc2c1C(=O)c1cc(Br)c(O)c(Br)c1 [Benzbromarone] | 94.1 |
| CCOC(=O)c1sc(NC(=O)c2ccco2)c(SC#N)c1C [CBR-5884] | 111 |
| O=C(/C=C/c1ccc(O)c(O)c1)OCCc1ccccc1 [Caffeic acid phenethyl ester] | 102 |
| CCCCCOC(=O)Nc1nc(=O)n([C@@H]2O[C@H](C)[C@@H](O)[C@H]2O)cc1F [Capecitabine] | 93.8 |
| Cc1ccc(-c2cc(C(F)(F)F)nn2-c2ccc(S(N)(=O)=O)cc2)cc1 [Celecoxib] | 93.2 |
| O=c1c(-c2ccc(O)cc2)coc2cc(O[C@@H]3O[C@H](CO)[C@@H](O)[C@H](O)[C@H]3O)ccc12 [Daidzin] | 87.4 |
| CCN(CC)C(=S)SSC(=S)N(CC)CC [Disulfiram] | 103 |
| c1cc(-c2cnn3cc(-c4ccc(OCCN5CCCCC5)cc4)cnc23)ccn1 [Dorsomorphin] | 108 |
| C[C@H]1c2cccc(O)c2C(=O)C2C(=O)[C@]3(O)C(=O)C(C(N)=O)C(=O)[C@@H](N(C)C)[C@@H]3[C@@H](O)[C@@H]21 (some centres undefined) [Doxycycline] | 87.9 |

same assay, conditions: 100 nM; 72 h

| Structure (SMILES) | cell viability [%] |
| --- | --- |
| Cc1c(Cl)cccc1S(=O)(=O)Nc1nc(CC(=O)N2CCN(C)CC2)cs1 [BVT-2733] | 94.8 |
| CCc1oc2ccccc2c1C(=O)c1cc(Br)c(O)c(Br)c1 [Benzbromarone] | 117 |
| CCOC(=O)c1sc(NC(=O)c2ccco2)c(SC#N)c1C [CBR-5884] | 87.5 |
| O=C(/C=C/c1ccc(O)c(O)c1)OCCc1ccccc1 [Caffeic acid phenethyl ester] | 94.3 |
| CCCCCOC(=O)Nc1nc(=O)n([C@@H]2O[C@H](C)[C@@H](O)[C@H]2O)cc1F [Capecitabine] | 102 |
| Cc1ccc(-c2cc(C(F)(F)F)nn2-c2ccc(S(N)(=O)=O)cc2)cc1 [Celecoxib] | 86.4 |
| O=c1c(-c2ccc(O)cc2)coc2cc(O[C@@H]3O[C@H](CO)[C@@H](O)[C@H](O)[C@H]3O)ccc12 [Daidzin] | 92.4 |
| CCN(CC)C(=S)SSC(=S)N(CC)CC [Disulfiram] | 97.6 |
| c1cc(-c2cnn3cc(-c4ccc(OCCN5CCCCC5)cc4)cnc23)ccn1 [Dorsomorphin] | 99.9 |
| C[C@H]1c2cccc(O)c2C(=O)C2C(=O)[C@]3(O)C(=O)C(C(N)=O)C(=O)[C@@H](N(C)C)[C@@H]3[C@@H](O)[C@@H]21 (some centres undefined) [Doxycycline] | 99.2 |

same assay, conditions: 1000 nM; 72 h

| Structure (SMILES) | cell viability [%] |
| --- | --- |
| Cc1c(Cl)cccc1S(=O)(=O)Nc1nc(CC(=O)N2CCN(C)CC2)cs1 [BVT-2733] | 93.3 |
| CCc1oc2ccccc2c1C(=O)c1cc(Br)c(O)c(Br)c1 [Benzbromarone] | 95.9 |
| CCOC(=O)c1sc(NC(=O)c2ccco2)c(SC#N)c1C [CBR-5884] | 105 |
| O=C(/C=C/c1ccc(O)c(O)c1)OCCc1ccccc1 [Caffeic acid phenethyl ester] | 31.9 |
